This note sets out measurements from article PMC7758879, “Tyramine Acts Downstream of Neuronal XBP-1s to Coordinate Inter-tissue UPR^ER Activation and Behavior in C. elegans” (Developmental Cell, 2020).

In the experiment the target is T1, OCTR-1 (Caenorhabditis elegans, UniProt Q7JP62).
T1 construct: cDNA in KSM vector, cRNA injected into Xenopus laevis oocytes; co-expressed with mouse GIRK1/GIRK2 as reporter
T1 sequence (Q7JP62 1-406): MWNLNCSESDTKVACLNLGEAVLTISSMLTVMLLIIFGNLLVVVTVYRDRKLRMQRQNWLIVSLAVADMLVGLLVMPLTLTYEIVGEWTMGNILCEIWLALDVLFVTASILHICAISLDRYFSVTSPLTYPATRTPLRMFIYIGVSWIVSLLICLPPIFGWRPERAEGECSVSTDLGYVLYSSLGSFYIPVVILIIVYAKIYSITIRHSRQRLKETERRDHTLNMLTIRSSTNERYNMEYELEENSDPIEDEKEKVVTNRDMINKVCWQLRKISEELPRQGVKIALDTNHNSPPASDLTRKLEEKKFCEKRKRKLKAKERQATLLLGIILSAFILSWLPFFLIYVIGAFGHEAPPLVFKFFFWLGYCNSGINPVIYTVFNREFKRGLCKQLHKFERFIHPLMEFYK
Nature of the experiment: two-electrode voltage clamp, GIRK1/[…] current, Xenopus oocytes. The class given is cell-based.

pEC50: −log10 of the molar value.

The term pEC50 denotes the EC50 on a negative log10 scale, so that one unit is a factor of ten. Read a low pEC50 as a high EC50. For `NC[C@H](O)c1ccc(O)cc1` [Oct, octopamine], the pEC50 is 6.94.

Consider `NCCc1ccc(O)cc1` [Tyr, tyramine], for which the pEC50 was 4.89.
